The text below walks through data of patent US5464617A, “β-lactam compounds” (Hoffmann-La Roche Inc., priority 1994, dated 1995).

Assay [1] relates to Citrobacter freundii 1982. As to the kind of experiment: MIC in vitro of a 1:4 combination of ceftriaxone with a compound of formula I (Test D). Format: cell-based. The following applies: for MIC C. freundii 1982 (D): test D; for MIC C. freundii 1982: Table 2. As for the experimental part:
The minimum inhibitory concentration in vitro ([…]) of a 1:4 combination of ceftriaxone with a compound of formula I against Citrobacter freundii 1982 was measured and compiled in Table 2 hereinafter.

The next assay relates to E. coli 1346. As to the kind of experiment: Antibacterial activity of the products per se, serial dilution method in liquid medium (Test E). It counts as cell-based. Conditions: product per se; for MIC E. coli 1346 (E): test E; for MIC E. coli 1346: Table 3, liquid medium. An excerpt: The antibacterial activity of the products per se is illustrated on the basis of Table 3 hereinafter, the minimum inhibitory concentration […] in vitro against E. coli 1346 being determined using the serial dilution method in liquid medium: […]

Where [2] appears, read: Table 4, 1:4 combination of ceftriaxone with the compound.
Where [3] appears, read: 1:4 combination of ceftriaxone with the compound.

Structures can show the parent of a compound that is named as a salt.

On to `NC(=O)OCC1=C(C(=O)O)N2C(=O)[C@@H]3[C@H]2[C@H](C1)CN3C(=O)C(F)(F)F` [58(d), (1aS,3aR,6bR)-5-Carbamoyloxymethyl-1-oxo-2-trifluoroacetyl-1a,2,3,3a,4,6b-hexahydro-1H-2,6a-diazacyclobut[cd]indene-6-carboxylic acid sodium salt], for which the “MIC C. freundii 1982 (D)” value in assay [1] (Table 5, particularly preferred products, 1:4 combination with ceftriaxone) was found to be 0.5 µg/mL. Further, the “MIC E. coli 1346 (E)” value against E. coli 1346 (Table 5, particularly preferred products) was determined as 1 µg/mL.
With `NC(=O)CSC1=C(C(=O)O)N2C(=O)[C@H]3NC[C@@H](C1)[C@H]32` [Example 2(f), (1aS,3aR,6bR)-5-Carbamoylmethylsulphanyl-1-oxo-1a,2,3,3a,4,6b-hexahydro-1H-2,6a-diazacyclobut[cd]indene-6-carboxylic acid trifluoroacetate], the “MIC C. freundii 1982 (D)” value in assay [1] (setting [2]) was found to be 2 µg/mL. The “MIC E. coli 1346 (E)” value in the assay on E. coli 1346 (Table 4) amounted to 8 µg/mL.
For `NC(=O)Cn1nnnc1SCC1=C(C(=O)O)N2C(=O)[C@@H]3[C@H]2[C@@H](CN3C=O)O1` [38(b), (1 aS ,3aR, 6 bS )-5-(1-Carbamoylmethyl-1H-tetrazol-5-yl-sulfanylmethyl)-2-formyl-1-oxo-1,1a,2,3,3a,6b-hexahydro-4-oxa-2,6a-diaza-cyclobut[cd]indene-6-carboxylic acid sodium salt], the “MIC C. freundii 1982 (D)” value in assay [1] (setting [2]) was determined as 4 µg/mL. Further, the “MIC E. coli 1346 (E)” value against E. coli 1346 (Table 4) amounted to 8 µg/mL.
As for `O=C(NCc1ccncc1)OCC1=C(C(=O)O)N2C(=O)[C@@H]3[C@H]2[C@H](C1)CN3C(=O)C(F)(F)F` [100(b), (1aS,3aR,6bR)-1-Oxo-5-(pyridin-4-ylmethylcarbamoyloxymethyl)-2-trifluoroacetyl-1a,2,3,3a,4,6b-hexahydro-1H-2,6a-diazacyclobut[cd]indene-6-carboxylic acid sodium salt], the “MIC C. freundii 1982 (D)” value in assay [1] (setting [2]) was determined as 1 µg/mL. Moreover, the “MIC E. coli 1346 (E)” value in the assay with E. coli 1346 (Table 4) came out at 2 µg/mL.
On to `Cc1nnc(SCC(=O)N2C[C@H]3CC(COC(N)=O)=C(C(=O)O)N4C(=O)[C@@H]2[C@@H]34)s1` [Example 58(e), (1aS,3aR,6bR)-5-Carbamoyloxymethyl-2-(5-methyl-1,3,4-thiadiazol-2-ylsulphanylacetyl)-1-oxo-1a,2,3,3a,4,6b-hexahydro-1H-2,6a-diazacyclobut[cd]indene-6-carboxylic acid sodium salt], for which the “MIC C. freundii 1982 (D)” value in assay [1] (setting [2]) was found to be 0.25 µg/mL. In addition, the “MIC E. coli 1346 (E)” value in the assay on E. coli 1346 (Table 4) worked out at 8 µg/mL.
Turning to `CC(=O)NCC1=C(C(=O)O)N2C(=O)[C@H]3NC[C@@H](C1)[C@H]32` [Example 84, (1aS,3aR, 6bR)-5-Acetylaminomethyl-1-oxo-l a,2,3,3a,4,6b-hexahydro-1H-2,6a-diazacyclobut[cd]indene-6-carboxylic acid trifluoroacetate], the “MIC C. freundii 1982 (D)” value in assay [1] (setting [2]) was found to be 4 µg/mL. Moreover, the “MIC E. coli 1346 (E)” value against E. coli 1346 (Table 4) was 2 µg/mL.
Regarding `O=C(O)CC1=C(C(=O)O)N2C(=O)[C@@H]3[C@H]2[C@H](C1)CN3C(=O)Nc1ccc(O)cc1` [13(a), (1aS,3aR,6bR)-5-carboxymethyl-2-(4-hydroxy-phenycarbamoyl)-1-oxo-1a,2,3,3a,4,6b-hexahydro-1H-2,6a-diazacyclobut[cd]indene-6-carboxylic acid sodium salt], the “MIC C. freundii 1982” value in assay [1] (setting [3]) worked out at 1 µg/mL. Further, in the assay with E. coli 1346, the “MIC E. coli 1346” value was 4 µg/mL.
As for `NC(=O)CSC1=C(C(=O)O)N2C(=O)[C@@H]3[C@H]2[C@H](C1)CN3C(=O)Nc1ccc(O)cc1` [3(p), (1aS,3aR,6bR)-5-Carbamoylmethylsulphanyl-2-(4-hydroxyphenylcarbamoyl)-1-oxo-5-(pyridin-4-ylsulphanyl)-1a,2,3,3a,4,6b-hexahydro-1H-2,6a-diazacyclobut[cd]indene-6-carboxylic acid sodium salt], in assay [1] (setting [2]), the “MIC C. freundii 1982 (D)” value stood at 1 µg/mL. Moreover, the “MIC E. coli 1346 (E)” value in the assay with E. coli 1346 (Table 4) is 32 µg/mL.
The corresponding values for `CC(C)(C)OC(=O)CCNC(=O)N1C[C@H]2CC(C[n+]3ccccc3)=C(C(=O)[O-])N3C(=O)[C@@H]1[C@@H]23` [23(f), (1aS,3aR,6bR)-2-(2-t-Butoxycarbonyl-ethylcarbamoyl)-1-oxo-5-(pyridin-1-yliomethyl)-1a,2,3,3a,4,6b-hexahydro-1H-2,6a-diazacyclobut[cd]indene-6-carboxylate] are 4 µg/mL and more than 32 µg/mL.
With `CN1CCN(C(=O)OCC2=C(C(=O)O)N3C(=O)[C@H]4NC[C@@H](C2)[C@H]43)CC1` [Example 103, (1aS,3aR,6bR)-5-(4-Methyl-piperazin-1-ylcarbonyloxymethyl)-1-oxo-1a,2,3,3a,4,6b-hexahydro-1H-2,6a-diazacydobut[cd]indene-6-carboxylic acid trifluoroacetate], the “MIC C. freundii 1982 (D)” value in assay [1] (setting [2]) is 2 µg/mL. The “MIC E. coli 1346 (E)” value with E. coli 1346 (Table 4) came out at 1 µg/mL.
Take `CC(=O)N1C[C@H]2CC(Sc3nnc(C)s3)=C(C(=O)O)N3C(=O)[C@@H]1[C@@H]23` [3(ac), (1aS,3aR,6bR)-2-Acetyl-5-(5-methyl-1,3,4-thiadiazol-2-ylsulphanyl)-1-oxo-1a,2,3,3a,4,6b-hexahydro-1H-2,6a-diazacyclobut[cd]indene-6-carboxylic acid sodium salt]: in assay [1] (setting [2]), the “MIC C. freundii 1982 (D)” value worked out at 4 µg/mL. For the same compound, in the assay with E. coli 1346 (Table 4), the “MIC E. coli 1346 (E)” value is 8 µg/mL.
Turning to `CC(=O)N1C[C@H]2CC(Sc3nnnn3C)=C(C(=O)O)N3C(=O)[C@@H]1[C@@H]23` [Example 3(aa), (1aS,3aR,6bR)-2-Acetyl-5-(1-methyl-1H-tetrazol-5-ylsulphanyl)-1-oxo-1a,2,3,3a,4,6b-hexahydro-1H-2,6a-diazacyclobut[cd]indene-6-carboxylic acid sodium salt], the “MIC C. freundii 1982 (D)” value in assay [1] (setting [2]) worked out at 2 µg/mL. Further, the “MIC E. coli 1346 (E)” value against E. coli 1346 (Table 4) was determined as 8 µg/mL.
As for `CC(=O)N1C[C@H]2CC(Sc3nnc(N)s3)=C(C(=O)O)N3C(=O)[C@@H]1[C@@H]23` [3(ae), (1aS,3aR,6bR)-2-Acetyl-5-(5-amino-1,3,4-thiadiazol-2-ylsulphanyl)-1-oxo-1a,2,3,3a,4,6b-hexahydro-1H-2,6a-diazacyclobut[cd]indene-6-carboxylic acid sodium salt], in assay [1] (setting [2]), the “MIC C. freundii 1982 (D)” value amounted to 4 µg/mL. In addition, the “MIC E. coli 1346 (E)” value against E. coli 1346 (Table 4) amounted to 4 µg/mL.
Consider `Cc1ccc(S(=O)(=O)OC2=C(C(=O)O)N3C(=O)[C@@H]4[C@H]3[C@H](C2)CN4C(=O)Nc2ccc(O)cc2)cc1` [9(i), (1aS,3aR,6bR)-2-(4-Hydroxy-phenylcarbamoyl)-5-(4-methyl-phenylsulphonyloxy)-1-oxo-1a,2,3,3a,4,6b-hexahydro-1H-2,6a-diazacyclobut[cd]indene-6-carboxylic acid sodium salt], for which the “MIC C. freundii 1982” value in assay [1] (setting [3]) came to 2 µg/mL. For the same compound, the “MIC E. coli 1346” value in the assay on E. coli 1346 came to 16 µg/mL.
Turning to `CC(=O)N1C[C@H]2CC(COC(=O)NCC(F)(F)F)=C(C(=O)O)N3C(=O)[C@@H]1[C@@H]23` [92(a), (1aS,3aR,6bR)-2-Acetyl-1-oxo-5-(2,2,2-trifluoroethylcarbamoyloxymethyl)-1a,2,3,3a,4,6b-hexahydro-1H-2,6a-diazacyclobut[cd]indene-6-carboxylic acid sodium salt], the “MIC C. freundii 1982 (D)” value in assay [1] (setting [2]) was determined as 2 µg/mL. In addition, the “MIC E. coli 1346 (E)” value with E. coli 1346 (Table 4) turned out to be 4 µg/mL.
The corresponding values for `O=C(O)C1=C(CSc2ccncc2)S[C@@H]2CN(C(=O)Nc3ccc(O)cc3)[C@@H]3C(=O)N1[C@@H]32` [41(b), (1aS,3aR,6bS)-2-(4-Hydroxy-phenylcarbamoyl)-1-oxo-5-(pyridin-4-ylsulphanylmethyl)-4-thia-1,1a,2,3,3a,6b-hexahydro-2,6a-diazacyclobut[cd]indene-6-carboxylic acid sodium salt] are 4 µg/mL and more than 32 µg/mL.
